Assay results from patent publication US4500526A, “Cephalosporin derivatives” (Bristol-Myers Company, priority 1983, dated 1985).
Converted amounts (≈) assume the structure as drawn. Like-named read-outs stand apart in the source and are kept apart here.

Key:
[1] = tested on: Penicillinsensitive S. aureus (5 strains); assay: MIC, two-fold serial agar dilution, group (G+)-Ia; type: cell-based; settings: Staphylococcus aureus, read-out: Geometric Mean of MIC
Description: (§1) In the primary evaluation of the compounds of this invention, the Minimum Inhibitory Concentrations (MIC's) of the compounds were determined by the two-fold serial agar dilution method in Mueller-Hinton agar against 32 strains of test organisms in six groups. The sample weights of the test compounds were adjusted according to the purity of each compound, so as to give a more accurate measure of the MIC's.
(G+)Ia: Penicillinsensitive S. aureus (5 strains)

[2] = tested on: Penicillinresistant S. aureus (5 strains); assay: MIC, two-fold serial agar dilution, group (G+)-Ib; type: cell-based; settings: Staphylococcus aureus, read-out: Geometric Mean of MIC
Description: as §1
(G+)Ib: Penicillinresistant S. aureus (5 strains)

[3] = tested on: Cephalothinsensitive E. coli (2 strains), Kl. pneumoniae (1 strain) and Pr. mirabilis (2 strains); assay: MIC, two-fold serial agar dilution, group (G-)-Ia; type: cell-based; settings: 5 strains, Mueller-Hinton agar, read-out: Geometric Mean of MIC
Description: as §1
(G-)Ia: Cephalothinsensitive E. coli (2 strains), Kl. pneumoniae (1
strain) and Pr. mirabilis (2 strains)

[4] = tested on: Cephalothinresistant E. coli (3 strains) and Kl. pneumoniae (3 strains); assay: MIC, two-fold serial agar dilution, group (G-)-Ib; type: cell-based; settings: Escherichia coli, read-out: Geometric Mean of MIC
Description: as §1
(G-)Ib: Cephalothinresistant E. coli (3 strains) and Kl. pneumoniae (3

[5] = tested on: M. morganii (1 strain), Ent. cloacae (2 strains) and Ser. marcescens (2 strains); assay: MIC, two-fold serial agar dilution, group (G-)-II; type: cell-based; settings: read-out: Geometric Mean of MIC
Description: as §1
(G-)II: M. morganii (1 strain), Ent. cloacae (2 strains) and Ser.

[6] = tested on: Ps. aeruginosa (6 strains); assay: MIC, two-fold serial agar dilution, group (G-)-III; type: cell-based; settings: Pseudomonas aeruginosa, read-out: Geometric Mean of MIC
Description: as §1
(G-)III: Ps. aeruginosa (6 strains)

[7] = Mouse blood levels after single intramuscular injection; type: in vivo, mice; settings: in vivo, im, 20 mg/kg
Description: The absorption of some of the preferred compounds were determined in mice following a single intramuscular injection of the test compound (dissolved in 0.1M phosphate buffer; pH 7) at a dosage of 20 mg/kg. Blood samples were collected from the orbital sinuses into heparinized capillary tubes and assayed in Nutrient Agar (pH 6.6) using E. coli Ess-22-31 as the test organism. The blood levels at various time intervals, the half-life values (t1/2) and the areas under the curve (AUC) are shown in Table 2.

[8] = tested on: H. influenzae (3) (ampicillin resistant); assay: In vitro activity against fastidious bacteria, two-fold serial agar dilution; type: cell-based; settings: Haemophilus influenzae, read-out: Geometric Mean of MIC
Description: (§2) The in vitro activity of some of the preferred compounds against 30 strains of fastidious bacteria was determined by the two-fold serial agar dilution method in Gonococcus agar (GC agar), and the results are shown in Table 3.

[9] = tested on: H. influenzae (7) (ampicillin sensitive); assay: as above; type: cell-based; settings: Haemophilus influenzae, GC agar, 7 strains, read-out: Geometric Mean of MIC
Description: as §2

N. gonorrhoeae (5) = assay: as above; type: cell-based; settings: Neisseria gonorrhoeae, read-out: Geometric Mean of MIC
Description: as §2

N. meningitidis (5) = assay: as above; type: cell-based; settings: Neisseria meningitidis, read-out: Geometric Mean of MIC
Description: as §2

S. pneumoniae (5) = assay: as above; type: cell-based; settings: Streptococcus pneumoniae; GC agar; read-out: Geometric Mean of MIC
Description: as §2

S. pyogenes (5 strains) = assay: as above; type: cell-based; settings: Streptococcus pyogenes; GC agar; read-out: Geometric Mean of MIC
Description: as §2

E. coli Juhl = assay: Median protective dose in infected mice; type: in vivo; settings: Escherichia coli, im, immediately after intraperitoneal challenge, read-out: PD50
Description: (§3) The median protective dose (PD50) of some of the preferred compounds against various microorganisms was determined in mice by intramuscular administration of the test compound immediately after an intraperitoneal bacterial challenge.

P. aeruginosa A9843 = assay: Median protective dose in infected mice; type: in vivo; settings: Pseudomonas aeruginosa, im, immediately after intraperitoneal challenge, read-out: PD50
Description: as §3

S. aureus Smith = assay: Median protective dose in infected mice; type: in vivo; settings: Staphylococcus aureus, im, immediately after intraperitoneal challenge, read-out: PD50
Description: as §3

[10] = (G+)-Ia, 5 strains, Mueller-Hinton agar
[11] = (G+)-Ib, 5 strains, Mueller-Hinton agar
[12] = (G-)-II, 5 strains, Mueller-Hinton agar
[13] = (G-)-III, 6 strains, Mueller-Hinton agar

Nc1nc(/C(=N/OC2(C(=O)O)CCC2)C(=O)NC2C(=O)N3C(C(=O)[O-])=C(C[n+]4ccc5scnc5c4)CS[C@H]23)cs1 (stereo partly drawn) [Ie, 7-[(Z)-2-(2-Aminothiazol-4-yl)-2-(1-carboxycyclobut-1-oxyimino)-acetamido]-3-{(5-thiazolo[4,5-c]pyridinio)methyl}-3-cephem-4-carboxylate]
MIC [1, 10]: 2.2 µg/mL (≈ 3.57 µM)
MIC [2, 11]: 4.4 µg/mL (≈ 7.15 µM)
MIC [3]: 0.023 µg/mL (≈ 0.0374 µM)
MIC [4]: 0.5 µg/mL (≈ 0.812 µM)
MIC [5, 12]: 0.34 µg/mL (≈ 0.552 µM)
MIC [6]: 1.3 µg/mL (≈ 2.11 µM)
AUC [7]: 7900 ng·h/mL
concentration at 10 min [7]: 13000 ng/mL
concentration at 20 min [7]: 12000 ng/mL
concentration at 0.5 h [7]: 7500 ng/mL
concentration at 40 min [7]: 4300 ng/mL
concentration at 50 min [7]: 3000 ng/mL
concentration at 1 h [7]: 2600 ng/mL
concentration at 1.5 h [7]: 510 ng/mL
concentration at 2 h [7]: 150 ng/mL
half-life [7]: 16 min
MIC [8]: 0.1 µg/mL (≈ 0.162 µM)
MIC [9]: 0.1 µg/mL (≈ 0.162 µM)
MIC (N. gonorrhoeae (5)): 0.1 µg/mL (≈ 0.162 µM)
MIC (N. meningitidis (5)): 0.1 µg/mL (≈ 0.162 µM)
MIC (S. pneumoniae (5)): 0.2 µg/mL (≈ 0.325 µM)
MIC (S. pyogenes (5 strains)): 0.2 µg/mL (≈ 0.325 µM)
ED50 (E. coli Juhl): 0.08 mg/kg
ED50 (P. aeruginosa A9843): 1.8 mg/kg
ED50 (S. aureus Smith): 3.1 mg/kg

CO/N=C(\C(=O)NC1C(=O)N2C(C(=O)[O-])=C(C[n+]3ccc4sc(NC(=O)OC)nc4c3)CS[C@H]12)c1csc(N)n1 (stereo partly drawn) [Is, 7-[(Z)-2-(2-Aminothiazol-4-yl)-2-methoxyiminoacetamido]-3-(2-methoxycarbonylamino-5-thiazolo[4,5-c]pyridinio)methyl-3-cephem-4-carboxylate]
MIC [1, 10]: 0.46 µg/mL (≈ 0.761 µM)
MIC [2, 11]: 0.8 µg/mL (≈ 1.32 µM)
MIC [3]: 0.038 µg/mL (≈ 0.0628 µM)
MIC [4]: 0.69 µg/mL (≈ 1.14 µM)
MIC [5]: 0.6 µg/mL (≈ 0.992 µM)
MIC [6, 13]: 14 µg/mL (≈ 23.2 µM)
AUC [7]: 13000 ng·h/mL
concentration at 10 min [7]: 19000 ng/mL
concentration at 20 min [7]: 18000 ng/mL
concentration at 0.5 h [7]: 14000 ng/mL
concentration at 40 min [7]: 6700 ng/mL
concentration at 50 min [7]: 4600 ng/mL
concentration at 1 h [7]: 4600 ng/mL
concentration at 1.5 h [7]: 2200 ng/mL
concentration at 2 h [7]: 1100 ng/mL
half-life [7]: 26 min
ED50 (E. coli Juhl): 0.018 mg/kg
ED50 (P. aeruginosa A9843): 10 mg/kg
ED50 (S. aureus Smith): 1.2 mg/kg

CO/N=C(\C(=O)NC1C(=O)N2C(C(=O)[O-])=C(C[n+]3ccc4sc(NC(=O)N5CCCC5)nc4c3)CS[C@H]12)c1csc(N)n1 (stereo partly drawn) [It, 7-[(Z)-2-(2-Aminothiazol-4-yl)-2-methoxyiminoacetamido]-3-[2-(pyrrolidin-1-ylcarbonylamino)-5-thiazolo[4,5-c]pyridinio]methyl-3-cephem-4-carboxylate]
MIC [1, 10]: 0.53 µg/mL (≈ 0.823 µM)
MIC [2]: 1.6 µg/mL (≈ 2.49 µM)
MIC [3]: 0.3 µg/mL (≈ 0.466 µM)
MIC [4]: 0.92 µg/mL (≈ 1.43 µM)
MIC [5, 12]: 2.8 µg/mL (≈ 4.35 µM)
MIC [6, 13]: 34 µg/mL (≈ 52.8 µM)
AUC [7]: 13000 ng·h/mL
concentration at 10 min [7]: 19000 ng/mL
concentration at 20 min [7]: 18000 ng/mL
concentration at 0.5 h [7]: 11000 ng/mL
concentration at 40 min [7]: 7800 ng/mL
concentration at 50 min [7]: 6600 ng/mL
concentration at 1 h [7]: 5400 ng/mL
concentration at 1.5 h [7]: 2100 ng/mL
concentration at 2 h [7]: 890 ng/mL
half-life [7]: 24 min
ED50 (E. coli Juhl): 0.2 mg/kg
ED50 (P. aeruginosa A9843): > 25 mg/kg
ED50 (S. aureus Smith): 1.9 mg/kg

CO/N=C(\C(=O)NC1C(=O)N2C(C(=O)[O-])=C(C[n+]3ccc4sc(N(C)C)nc4c3)CS[C@H]12)c1csc(N)n1 (stereo partly drawn) [Iu, 7-[(Z)-2-(2-Aminothiazol-4-yl)-2-methoxyiminoacetamido]-3-(2-dimethylamino-5-thiazolo[4,5-c]pyridinio)methyl-3-cephem-4-carboxylate]
MIC [1, 10]: 0.46 µg/mL (≈ 0.8 µM)
MIC [2, 11]: 0.8 µg/mL (≈ 1.39 µM)
MIC [3]: 0.012 µg/mL (≈ 0.0209 µM)
MIC [4]: 0.11 µg/mL (≈ 0.191 µM)
MIC [5]: 0.23 µg/mL (≈ 0.4 µM)
MIC [6, 13]: 6.3 µg/mL (≈ 11 µM)
AUC [7]: 9800 ng·h/mL
concentration at 10 min [7]: 18000 ng/mL
concentration at 20 min [7]: 13000 ng/mL
concentration at 0.5 h [7]: 9600 ng/mL
concentration at 40 min [7]: 5500 ng/mL
concentration at 50 min [7]: 3400 ng/mL
concentration at 1 h [7]: 2600 ng/mL
concentration at 1.5 h [7]: 1000 ng/mL
concentration at 2 h [7]: 340 ng/mL
half-life [7]: 19 min
ED50 (E. coli Juhl): 0.013 mg/kg
ED50 (P. aeruginosa A9843): 4.6 mg/kg
ED50 (S. aureus Smith): 0.48 mg/kg

CO/N=C(\C(=O)NC1C(=O)N2C(C(=O)[O-])=C(C[n+]3ccc4sc(C(=O)O)nc4c3)CS[C@H]12)c1csc(N)n1 (stereo partly drawn) [Iv, 7-[(Z)-2-(2-Aminothiazol-4-yl)-2-methoxyiminoacetamido]-3-(2-carboxy-5-thiazolo[4,5-c]pyridinio)methyl-3-cephem-4-carboxylate]
MIC [1]: 1.6 µg/mL (≈ 2.78 µM)
MIC [2, 11]: 3.1 µg/mL (≈ 5.39 µM)
MIC [3]: 0.014 µg/mL (≈ 0.0243 µM)
MIC [4]: 1.2 µg/mL (≈ 2.08 µM)
MIC [5, 12]: 0.69 µg/mL (≈ 1.2 µM)
MIC [6, 13]: 5.7 µg/mL (≈ 9.9 µM)
AUC [7]: 10000 ng·h/mL
concentration at 10 min [7]: 17000 ng/mL
concentration at 20 min [7]: 16000 ng/mL
concentration at 0.5 h [7]: 10000 ng/mL
concentration at 40 min [7]: 5900 ng/mL
concentration at 50 min [7]: 4300 ng/mL
concentration at 1 h [7]: 3000 ng/mL
concentration at 1.5 h [7]: 1200 ng/mL
concentration at 2 h [7]: < 200 ng/mL
half-life [7]: 19 min
ED50 (E. coli Juhl): 0.024 mg/kg
ED50 (P. aeruginosa A9843): 21 mg/kg
ED50 (S. aureus Smith): 2.6 mg/kg

CO/N=C(\C(=O)NC1C(=O)N2C(C(=O)[O-])=C(C[n+]3ccc4sc(C=O)nc4c3)CSC12)c1csc(N)n1 (stereo not drawn) [Iw, 7-[(Z)-2-(2-Aminothiazol-4-yl)-2-methoxyiminoacetamido]-3-(2-formylthiazolo[4,5-c]pyridinio)methyl-3-cephem-4-carboxylate]
MIC [1, 10]: 0.53 µg/mL (≈ 0.947 µM)
MIC [2]: 1.6 µg/mL (≈ 2.86 µM)
MIC [3]: 0.016 µg/mL (≈ 0.0286 µM)
MIC [4]: 0.17 µg/mL (≈ 0.304 µM)
MIC [5]: 0.2 µg/mL (≈ 0.357 µM)
MIC [6, 13]: 1.7 µg/mL (≈ 3.04 µM)
AUC [7]: 11000 ng·h/mL
concentration at 10 min [7]: 20000 ng/mL
concentration at 20 min [7]: 19000 ng/mL
concentration at 0.5 h [7]: 8900 ng/mL
concentration at 40 min [7]: 6600 ng/mL
concentration at 50 min [7]: 3900 ng/mL
concentration at 1 h [7]: 2000 ng/mL
concentration at 1.5 h [7]: 1000 ng/mL
concentration at 2 h [7]: 480 ng/mL
half-life [7]: 19 min
ED50 (E. coli Juhl): 0.015 mg/kg
ED50 (P. aeruginosa A9843): 4.7 mg/kg
ED50 (S. aureus Smith): 1.3 mg/kg
